According to patent publication US20230242843A1, “GREEN SOLVENT, LAUNDRY COMPOSITION COMPRISING SAME, AND WASHING MACHINE” (LG HOUSEHOLD & HEALTH CARE LTD., priority 2020, published 2023):

Legend:
[1] = log P (octanol-water fractionation coefficient); details: for logP: octanol/water
[2] = Composition identification of the solvent after 30 times of washing with solvent reuse; type: physicochemical; details: for Content in solvent collected in the solvent storage tank after final washing: initial 96.0 wt %
Description: The washing machines according to Examples and Comparative Examples according to the present disclosure were prepared, and washing was performed under the same conditions. The same type of fibers was put into each washing machine, and a composition including a compound according to the Chemical Formula 1 (wherein R1 and R2 are alkyl having 1 carbon atom, and R3 is hydrogen) was used as a laundry solvent.
At the first washing, the solvent was supplied, the washing was performed for 15 minutes, the solvent was collected while undergoing a drying process, another fiber was put into the washing machine, and the collected solvent was re-supplied for washing. 30 times of washing in total were performed in the same way, without replacement of the solvent storage tank or cartridge during the washing process.

## CC1(C)OCC(CO)O1 (stereo not drawn) [Chemical Formula 1, solketal]
[1]; octanol-water
  Log P: approximately 1.07
[2]; 30 washings, conventional washing machine (Comparative Example 2-1)
  Amount decomposed into acetone and glycerol: approximately 30 wt %
[2]; 30 washings, washing machine of Comparative Example 2-1 (conventional)
  Content in solvent collected in the solvent storage tank after final washing: 69.0 wt %
[2]; 30 washings, washing machine of Example 2-1
  Content in solvent collected in the solvent storage tank after final washing: 91.4 wt %
[2]; 30 washings, washing machine of Example 2-2
  Content in solvent collected in the solvent storage tank after final washing: 92.7 wt %
[2]; 30 washings, washing machine of Example 2-3
  Content in solvent collected in the solvent storage tank after final washing: 94.1 wt %
[2]; 30 washings, washing machine of Example 2-4
  Content in solvent collected in the solvent storage tank after final washing: 94.9 wt %
[2]; 30 washings, washing machine of Example 2-5
  Content in solvent collected in the solvent storage tank after final washing: 95.5 wt %
[2]; after 30 times of washing, washing machine according to an example embodiment
  Amount decomposed: less than 10 wt %

## CCOC(=O)c1ccccc1C(=O)O [2-(ethoxycarbonyl)benzoic acid]
[1]
  logP: 1.8

## Cc1nc(N(C)C)nc(O)c1C [2-(dimethylamino)-5,6-dimethylpyrimidin-4-ol]
[1]
  logP: 1.63

## Oc1cccc(O)c1 [Resorcinol]
[1]
  logP: 1.13

## CCCCOCCOCCO [2-(2-butoxyethoxy)ethanol]
[1]
  logP: 0.65

## CC(C)=CCC/C(C)=C/CO [Geraniol]
[1]
  logP: 3.47

## OCCO [Ethylene glycol, reference compound]
[1]
  logP: -1.93

## Cc1cc(O)c(C)c(O)c1C(=O)O [2,4-Dihydroxy-3,6-dimethylbenzoic acid]
[1]
  logP: 2.19

## CCCCCCC(C=O)=Cc1ccccc1 [Alpha-hexyl cinnamaldehyde, reference compound]
[1]
  logP: 4.68

## COc1cc(C=O)ccc1O [Vanillin]
[1]
  logP: 0.71
